Laboratory results as given in ChEMBL document CHEMBL1201862, “PubChem BioAssay data set” (2004).
Each block holds one molecule with its values, some of them ahead of it. Calls of active or inactive are those of the source.

Tests used:
[1] = molecular target: Peroxisome proliferator-activated receptor gamma/Nuclear receptor coactivator 2 (Homo sapiens, UniProt P37231); assay: (§1) TR-FRET dose response biochemical High Throughput Screening assay for agonists of the steroid receptor coactivator 2 (SRC-2) recruitment by the peroxisome proliferator-activated receptor gamma (PPAR gamma): non-selective agonists. [Related pubchem assays: 1297, 1032 ]; format: functional
[2] = molecular target: Peroxisome proliferator-activated receptor gamma/Nuclear receptor coactivator 3 (Homo sapiens, UniProt P37231); assay: as §1, with “3 (SRC-3)” for “2 (SRC-2)”, “1301 (Confirmation screen.), 1048 (Primary screen.)]” for “1297, 1032 ]”; format: functional
[3] = molecular target: Peroxisome proliferator-activated receptor gamma/Nuclear receptor coactivator 1 (Homo sapiens, UniProt P37231); assay: as §1, with “1 (SRC-1)” for “2 (SRC-2)”, “assays (depositor defined):AID1300, AID1808, AID504735, AID631]” for “assays: 1297, 1032 ]”; format: protein assay
Cytochrome P450 3A4 = Cytochrome P450 3A4 (Homo sapiens, UniProt P08684);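 also: CYP3A4 tested as one member of a cytochrome P450 panel screen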
[4] = Trypanosoma cruzi growth suppression in host cells – NIH3T3 host cells, beta-gal luminescence, confirmation (AID 2044); format: functional, cell-based;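 also: intracellular parasites grown in NIH/3T3 mouse fibroblasts as host cells; luminescent beta-galactosidase reporter signal from transgenic T. cruzi replicating inside host cells; inhibitors lower the luminescence signal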
[5] = NIH3T3 cell viability loss – ATP luminescence, mouse fibroblasts, counter-screen, dose response (AID 2010); format: functional, cell-based;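 also: cells exposed to compound for about 90 hours before reading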
[6] = molecular target: 72 kDa type IV collagenase (Homo sapiens, UniProt P08253); assay: Dose Response validation of uHTS RPN11 inhibitor hits using a MMP-2 Fluorescence assay.; format: functional
[7] = molecular target: 26S proteasome non-ATPase regulatory subunit 14 (Homo sapiens, UniProt O00487); assay: inhibition of proteasome subunit RPN11 – biochemical, fluorescence polarization, uHTS hits, confirmation (AID 602368); format: functional
Prothrombin = Prothrombin (Bos taurus, UniProt P00735); assay: thrombin protease inhibitors – biochemical, fluorescence polarization, uHTS hits, dose response (AID 602369); format: functional
[8] = Luminescence Cell-Based Dose Retest to Confirm Inhibitors of Cancer Stem Cells. [Related pubchem assays (depositor defined):AID2717, AID2721]; format: functional; settings: Homo sapiens
H9c2 = assay: cells; format: functional, cell-based; settings: Rattus norvegicus, H9c2, Myocardium;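 also: confirmatory concentration-response retest of ultra-high-throughput screening hits for modulation of myocardial damage; cell death induced by hydrogen peroxide oxidative stress; compound pretreatment for 60 min then peroxide exposure for 2 h; potency is for protecting the cells against peroxide damage rather than for killing them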
HEK293 = assay: EBV LMP1 TES2 canonical NF-kB signalling blockers – cell-based, HEK293, luciferase, cherry-pick, dose response (AID 588343); format: functional; settings: Homo sapiens
[9] = molecular target: T1, Microphthalmia-associated transcription factor (Homo sapiens, UniProt O75030); assay: reducers of TRPM1 reporter luminescence, concentration series – cell-based, SK-MEL-5, cherry-picked, set 3, MITF inhibitor project, dose response (AID 493073); format: functional;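 also: SK-MEL-5 melanoma cells with luciferase driven by the MITF target TRPM1 promoter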
T1 sequence (O75030 whole entry): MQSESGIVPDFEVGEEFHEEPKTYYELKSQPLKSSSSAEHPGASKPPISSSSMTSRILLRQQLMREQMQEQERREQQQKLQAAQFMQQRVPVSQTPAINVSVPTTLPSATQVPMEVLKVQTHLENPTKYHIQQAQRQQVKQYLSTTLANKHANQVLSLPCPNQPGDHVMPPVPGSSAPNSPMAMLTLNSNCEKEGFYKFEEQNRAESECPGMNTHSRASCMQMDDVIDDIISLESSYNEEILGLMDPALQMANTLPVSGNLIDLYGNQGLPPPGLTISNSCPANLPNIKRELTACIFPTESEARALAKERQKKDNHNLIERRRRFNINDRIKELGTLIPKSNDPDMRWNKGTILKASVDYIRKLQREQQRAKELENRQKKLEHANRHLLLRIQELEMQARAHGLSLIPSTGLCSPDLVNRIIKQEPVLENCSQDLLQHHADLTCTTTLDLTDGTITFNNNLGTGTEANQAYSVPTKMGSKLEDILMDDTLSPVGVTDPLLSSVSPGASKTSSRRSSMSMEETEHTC

[10] = non-specific 3'UTR reporter inhibition in Clone20-Shn3RL – cell-based, Renilla luciferase, cherry-picked, counter-screen for Shn3 inhibitor project, dose response (AID 624133); format: functional
[11] = reduction of Shn3 3'UTR-driven luciferase in osteoblasts – cell-based, Clone20 osteoblasts, firefly luciferase, cherry-picked, dose response (AID 624132); format: functional;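 also: firefly luciferase luminescence from reporter carrying the Shn3 3'UTR in osteoblasts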
[12] = loss of viability in HepG2 cells – cell-based, CellTiter-Glo, cherry-picked, cytotoxicity control for Shn3 inhibitor project, dose response (AID 624134); format: functional

Chain of Cytochrome P450 3A4 (P08684 whole entry): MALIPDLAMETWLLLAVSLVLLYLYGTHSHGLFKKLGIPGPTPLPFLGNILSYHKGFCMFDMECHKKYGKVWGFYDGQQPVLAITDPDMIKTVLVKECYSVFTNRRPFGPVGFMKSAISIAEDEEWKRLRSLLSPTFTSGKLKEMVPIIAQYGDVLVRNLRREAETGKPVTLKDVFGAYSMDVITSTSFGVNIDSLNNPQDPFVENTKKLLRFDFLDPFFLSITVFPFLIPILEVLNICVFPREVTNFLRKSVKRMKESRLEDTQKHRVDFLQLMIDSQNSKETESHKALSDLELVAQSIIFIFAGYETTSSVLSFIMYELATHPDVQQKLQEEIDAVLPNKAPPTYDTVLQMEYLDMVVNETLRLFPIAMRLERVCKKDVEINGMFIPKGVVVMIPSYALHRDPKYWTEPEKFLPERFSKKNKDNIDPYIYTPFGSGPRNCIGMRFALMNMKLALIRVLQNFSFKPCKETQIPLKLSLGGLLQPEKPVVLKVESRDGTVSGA
Chain of 26S proteasome non-ATPase regulatory subunit 14 (O00487 whole entry): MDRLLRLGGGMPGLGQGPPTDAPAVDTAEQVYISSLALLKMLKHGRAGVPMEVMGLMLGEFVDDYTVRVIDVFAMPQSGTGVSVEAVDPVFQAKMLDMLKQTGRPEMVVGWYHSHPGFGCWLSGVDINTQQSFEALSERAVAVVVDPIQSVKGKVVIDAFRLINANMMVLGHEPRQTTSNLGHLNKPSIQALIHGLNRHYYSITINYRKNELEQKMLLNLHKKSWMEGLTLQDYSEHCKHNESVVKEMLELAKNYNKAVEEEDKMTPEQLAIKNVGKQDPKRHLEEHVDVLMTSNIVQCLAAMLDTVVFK
Chain of 72 kDa type IV collagenase (P08253 whole entry): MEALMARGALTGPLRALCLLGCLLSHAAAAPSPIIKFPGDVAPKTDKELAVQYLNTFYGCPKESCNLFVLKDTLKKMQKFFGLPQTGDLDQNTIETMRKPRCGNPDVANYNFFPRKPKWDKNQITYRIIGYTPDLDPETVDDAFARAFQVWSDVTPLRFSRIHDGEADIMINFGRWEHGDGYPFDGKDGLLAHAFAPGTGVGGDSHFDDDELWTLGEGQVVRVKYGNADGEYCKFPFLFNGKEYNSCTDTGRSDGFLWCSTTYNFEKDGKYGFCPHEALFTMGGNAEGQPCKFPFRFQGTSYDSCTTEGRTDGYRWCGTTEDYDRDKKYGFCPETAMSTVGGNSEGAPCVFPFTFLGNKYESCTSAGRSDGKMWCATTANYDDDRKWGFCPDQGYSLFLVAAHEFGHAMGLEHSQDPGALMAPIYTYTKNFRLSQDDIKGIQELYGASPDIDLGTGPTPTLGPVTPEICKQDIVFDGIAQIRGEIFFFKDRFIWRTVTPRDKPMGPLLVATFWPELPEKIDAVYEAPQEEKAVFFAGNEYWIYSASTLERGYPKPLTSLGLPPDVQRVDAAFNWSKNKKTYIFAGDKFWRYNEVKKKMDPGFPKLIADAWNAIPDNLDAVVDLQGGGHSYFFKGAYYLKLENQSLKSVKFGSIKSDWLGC
Chain of Peroxisome proliferator-activated receptor gamma/Nuclear receptor coactivator 3 (P37231 whole entry): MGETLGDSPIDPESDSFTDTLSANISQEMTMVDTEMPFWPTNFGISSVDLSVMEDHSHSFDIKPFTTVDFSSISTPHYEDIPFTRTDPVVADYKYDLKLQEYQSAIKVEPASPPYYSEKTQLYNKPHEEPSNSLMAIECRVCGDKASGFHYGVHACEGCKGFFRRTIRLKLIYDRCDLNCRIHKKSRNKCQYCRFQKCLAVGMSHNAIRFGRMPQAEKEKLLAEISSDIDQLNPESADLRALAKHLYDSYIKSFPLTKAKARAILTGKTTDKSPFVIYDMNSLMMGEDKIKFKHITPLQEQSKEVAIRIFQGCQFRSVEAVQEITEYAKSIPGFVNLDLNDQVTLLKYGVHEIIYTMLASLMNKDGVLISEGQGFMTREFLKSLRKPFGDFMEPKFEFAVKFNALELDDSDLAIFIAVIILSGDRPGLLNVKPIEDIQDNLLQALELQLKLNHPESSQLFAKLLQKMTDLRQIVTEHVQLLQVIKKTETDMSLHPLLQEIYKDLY
Chain of Peroxisome proliferator-activated receptor gamma/Nuclear receptor coactivator 3 (Q9Y6Q9 whole entry, further chain): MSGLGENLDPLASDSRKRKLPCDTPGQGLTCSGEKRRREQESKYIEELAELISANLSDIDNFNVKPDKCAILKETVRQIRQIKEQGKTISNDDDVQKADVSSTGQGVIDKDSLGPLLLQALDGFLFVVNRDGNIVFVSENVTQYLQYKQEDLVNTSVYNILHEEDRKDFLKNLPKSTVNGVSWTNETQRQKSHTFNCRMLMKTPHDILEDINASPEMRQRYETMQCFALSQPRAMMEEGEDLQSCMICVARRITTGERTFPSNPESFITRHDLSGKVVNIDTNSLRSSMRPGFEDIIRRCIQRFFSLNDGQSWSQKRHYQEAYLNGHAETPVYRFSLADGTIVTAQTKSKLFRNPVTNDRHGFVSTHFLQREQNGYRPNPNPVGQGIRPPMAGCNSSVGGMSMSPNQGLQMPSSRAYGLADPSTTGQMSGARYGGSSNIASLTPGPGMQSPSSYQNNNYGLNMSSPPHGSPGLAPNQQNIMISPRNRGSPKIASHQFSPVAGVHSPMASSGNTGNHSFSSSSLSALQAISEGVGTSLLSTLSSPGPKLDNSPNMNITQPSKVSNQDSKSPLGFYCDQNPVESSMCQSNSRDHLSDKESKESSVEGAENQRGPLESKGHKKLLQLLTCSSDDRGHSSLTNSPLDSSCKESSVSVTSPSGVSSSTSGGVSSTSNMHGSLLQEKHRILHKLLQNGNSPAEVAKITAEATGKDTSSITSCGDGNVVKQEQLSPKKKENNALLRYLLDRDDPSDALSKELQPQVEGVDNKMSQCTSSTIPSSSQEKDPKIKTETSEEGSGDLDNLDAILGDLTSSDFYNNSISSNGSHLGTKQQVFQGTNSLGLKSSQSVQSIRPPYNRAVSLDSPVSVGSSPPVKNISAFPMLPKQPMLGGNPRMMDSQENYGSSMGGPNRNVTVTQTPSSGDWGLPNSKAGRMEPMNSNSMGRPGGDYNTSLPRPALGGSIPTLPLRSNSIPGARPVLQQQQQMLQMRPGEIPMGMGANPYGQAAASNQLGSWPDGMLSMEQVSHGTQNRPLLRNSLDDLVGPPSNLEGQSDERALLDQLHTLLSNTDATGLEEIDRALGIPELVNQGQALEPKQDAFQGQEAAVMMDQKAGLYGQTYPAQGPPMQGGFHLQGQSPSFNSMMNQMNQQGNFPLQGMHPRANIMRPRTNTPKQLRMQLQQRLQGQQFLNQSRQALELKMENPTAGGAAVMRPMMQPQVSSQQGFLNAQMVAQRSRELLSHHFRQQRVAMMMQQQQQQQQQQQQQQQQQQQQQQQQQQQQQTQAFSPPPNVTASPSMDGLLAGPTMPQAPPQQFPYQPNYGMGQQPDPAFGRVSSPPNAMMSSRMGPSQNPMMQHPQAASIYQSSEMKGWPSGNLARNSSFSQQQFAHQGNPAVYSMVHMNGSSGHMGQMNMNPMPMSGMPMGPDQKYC

EC50 [1]: 82.7 µM (not active)
EC50 [2]: > 79.4 µM (not active)
EC50 [3]: > 79.4 µM (inactive)
Compound: COc1cc2c(cc1OC)C1=NC(=O)CN1C(SCc1ccccc1C)=N2

AC50 (Cytochrome P450 3A4): inconclusive
Compound: Cc1cc(Cl)ccc1NC(=O)CN1CCC(C(O)(c2ccccc2)c2ccccc2)CC1

Compound: Cl.OCCN1CCN(CCOc2cccc(Cl)c2)CC1
EC50 [4]: 0.413 µM (active)
EC50 [5]: > 60 µM (inconclusive)
AC50 (Cytochrome P450 3A4): inconclusive

IC50 [6]: > 100 µM (inactive)
IC50 [7]: 14.1 µM (active)
IC50 (Prothrombin): > 100 µM (inactive)
Compound: O=C(CC1OC(=O)c2ccccc21)Nc1cc(Cl)ccc1N1CCCC1 (stereo not given)

Compound: CCOC(=O)c1c(NC(=O)C(c2ccccc2)c2ccccc2)sc2c1C1CCN2CC1.Cl
EC50 [4]: 1.86 µM (active)
AC50 [8]: 1.09 µM (active)
EC50 [5]: > 60 µM (not active)
AC50 (Cytochrome P450 3A4): inconclusive

Compound: COc1ccc(-c2oc3ncnc(NCCN4CCOCC4)c3c2-c2ccc(OC)cc2)cc1
IC50 (H9c2): > 79 µM (inactive)
AC50 (HEK293): 9.19 µM (active)

Compound: Cc1ccc(-c2nnc(O)c3ccccc23)cc1S(=O)(=O)NCC1CCCO1 (stereo not given)
IC50 (H9c2): 15.3 µM (active)
AC50 [9]: 53.2 µM (active)

Compound: Cc1cc2c(cc(C(=O)OC(C(=O)NC3CCCCC3)C(C)C)n2C)o1 (stereo not given)
AC50 [10]: 7.23 µM (active)
AC50 [11]: 5.9 µM (active)
AC50 [12]: 55.8 µM (active)

Compound: COc1cccc(C(=O)CC(=O)C(=O)Nc2ccc(C)cc2Cl)c1
AC50 (HEK293): 35 µM (active)

IC50 [6]: > 100 µM (inactive)
IC50 [7]: 6.2 µM (active)
IC50 (Prothrombin): 8.26 µM (active)
Compound: Cc1sc2nc(CSCC(=O)Nc3ccccc3C#N)[nH]c(=O)c2c1C
